Experiments:
[1] = tested on: castor oil-induced diarrhea in albino rats; assay: Castor oil-induced diarrhea (weight of faeces, rate of defecation); format: in vivo, Swiss albino rats; settings: STD group, 10 mg/kg i.p.
Description: (§1) The anti-diarrheal activity of the hazardless and stable aqua-regia in terms of reduction of rate of defecation and consistency of faeces was tested on albino rats. In an embodiment, Swiss albino rats weighing 150-180 g of either sex were selected for the experiment. Animals were allowed to acclimatize for a period of 2 weeks in laboratory environment by housing them in a plurality of polypropylene cages. The polypropylene cages were maintained under standard laboratory conditions at an ambient temperature of 25° C. with 35%-60% humidity. Animals were fed with standard rat pellet diet.
Loperamide (standard reference anti-diarrheal drug), castor oil (laxative agent), and normal saline solution (0.9% NaCl) were used. […]
Animals of all the groups were placed separately in individual cages lined with filter paper. The filter paper was changed every 1 hour and the severity of diarrhea was assessed hourly for two hours. The total weight of faeces excreted were recorded within a period of two hours and compared with that of the control group. […]
(§2) Data were analyzed by one-way ANOVA followed by Dunnett's t-test using computerized Graph Pad InStat version 3.05.

[2] = tested on: intestinal transit of charcoal meal in albino rats; assay: Gastrointestinal motility test (charcoal meal transit); format: in vivo, Swiss albino rats; settings: charcoal meal one hour after dosing, sacrificed thirty minutes later; aqua-regia 0.03 ml, atropine sulphate 0.1 mg/kg; control group 84.46%
Description: as §1, with “use” for “anti-diarrheal activity”, “rehydrating body cells” for “terms of reduction of rate of defecation and consistency of faeces”
Atropine sulphate (standard reference anti-diarrheal drug), charcoal meal (10% activated charcoal in 5% gum acacia) and vehicle (2% v/v Tween 80 in distilled water) were used. […]
The gastrointestinal motility test was conducted to illustrate use of aqua-regia in rehydrating body cells, according to an embodiment herein. […] The distance travelled by the charcoal meal was calculated. The distance covered by the charcoal meal in the intestine was expressed as a percentage of the total distance travelled from the pylorus to the caecum of each animal.
as §2

Row | SMILES | diarrheal symptoms [1] | percentage transit (distance covered by charcoal meal as percentage of distance from pylorus to caecum) [2] [%]
1 | CN(C)C(=O)C(CCN1CCC(O)(c2ccc(Cl)cc2)CC1)(c1ccccc1)c1ccccc1 [loperamide, Loperamide] | does not possess any diarrheal symptoms | –
2 | CN1[C@@H]2CC[C@H]1CC(OC(=O)C(CO)c1ccccc1)C2.CN1[C@@H]2CC[C@H]1CC(OC(=O)C(CO)c1ccccc1)C2.O=S(=O)(O)O (some centres unmarked) [standard drug, Atropine sulphate] | – | 55.57

Reference: patent US20120128795A1, “COLORLESS, NON-FUMING, HAZARDLESS AND STABLE AQUA-REGIA, ITS PREPARATION METHOD AND USE IN TREATING MEDICAL DISORDERS” (priority 2010, published 2012)
